Test results reported in DBAASP.
Values after ≈ are worked out from the molar mass of the structure shown.

Experiments:
Assay in all cases: ≥ marks a high value that may be exact or a test limit, other limits are often not marked, values filed in µg/mL are converted to µM
Candida krusei IOC 4559 = test system: Candida krusei IOC 4559
[1] = test system: Candida glabrata IOC 4565
[2] = test system: Candida albicans IOC 4558
Candida albicans MDM8 = test system: Candida albicans MDM8
[3] = test system: Candida tropicalis IOC 4560
[4] = test system: Candida parapsilosis IOC 4564
[5] = test system: Trichosporon sp. IOC 4569
[6] = test system: Pseudomonas aeruginosa ATCC 27853
[7] = test system: Bacillus subtilis ATCC 6633
[8] = test system: Staphylococcus epidermidis ATCC 12228
[9] = test system: Klebsiella pneumoniae ATCC 10031
[10] = test system: Micrococcus luteus ATCC 10240
[11] = test system: Salmonella enterica subsp. enterica serovar Typhimurium ATCC 14028
[12] = test system: Shigella dysenteriae ATCC 9752
[13] = test system: Escherichia coli ATCC 25922
[14] = test system: Staphylococcus aureus ATCC 6538P
[15] = test system: Bacillus subtilis KCTC 3068
[16] = test system: Staphylococcus aureus CCARM 3543
[17] = test system: Pseudomonas aeruginosa KCTC 1637
[18] = test system: Candida albicans ATCC 64550
[19] = test system: Escherichia coli KCTC 1682
[20] = test system: Salmonella typhimurium KCTC 1926
[21] = test system: Pseudomonas aeruginosa CCARM 2095
[22] = test system: Staphylococcus aureus CCARM 3001
[23] = test system: Staphylococcus aureus KCTC 1621
[24] = test system: Staphylococcus epidermidis KCTC 1917
[25] = test system: Pseudomonas aeruginosa CCARM 2109
Salmonella typhimurium = test system: Salmonella typhimurium
Proteus vulgaris = test system: Proteus vulgaris
Escherichia coli = test system: Escherichia coli
[26] = test system: Staphylococcus epidermidis
Streptococcus pyogenes = test system: Streptococcus pyogenes
Pseudomonas aeruginosa = test system: Pseudomonas aeruginosa
Bacillus subtilis = test system: Bacillus subtilis

SMILES: CC[C@H](C)[C@H](N)C(=O)N[C@H](C(=O)N[C@H](C(=O)N[C@@H](CCC(N)=O)C(=O)N[C@@H](Cc1ccc(O)cc1)C(=O)N[C@@H](CCC(=O)O)C(=O)NCC(=O)N[C@@H](Cc1cnc[nH]1)C(=O)N[C@@H](CCCCN)C(=O)N[C@@H](Cc1cnc[nH]1)C(=O)O)[C@@H](C)CC)[C@@H](C)CC [IIIQYEGHKH]
- MIC (Candida krusei IOC 4559): ≥ 33.5 µM
- MIC [1]: 16.5 µM (≈ 20.4 µg/mL)
- MIC [2]: 16.5 µM (≈ 20.4 µg/mL)
- MIC (Candida albicans MDM8): ≥ 33.5 µM
- MIC [3]: 16.5 µM (≈ 20.4 µg/mL)
- MIC [4]: ≥ 33.5 µM
- MIC [5]: 2.1 µM (≈ 2.6 µg/mL)

SMILES: CC(C)C[C@H](NC(=O)[C@H](CCCCN)NC(=O)[C@H](CC(C)C)NC(=O)[C@H](CC(C)C)NC(=O)[C@H](Cc1c[nH]c2ccccc12)NC(=O)[C@H](CCCCN)NC(=O)[C@H](CC(C)C)NC(=O)[C@H](CC(C)C)NC(=O)[C@@H](N)CCCCN)C(N)=O [KLLKWLLKL]
- MIC [6]: 43.3 µM (≈ 50 µg/mL)
- MIC [7]: 10.8 µM (≈ 12.5 µg/mL)
- MIC [8]: 10.8 µM (≈ 12.5 µg/mL)
- MIC [9]: 5.46 µM (≈ 6.29 µg/mL)
- MIC [10]: 21.7 µM (≈ 25 µg/mL)
- MIC [11]: 21.7 µM (≈ 25 µg/mL)
- MIC [12]: 10.8 µM (≈ 12.5 µg/mL)
- MIC [13]: 10.8 µM (≈ 12.5 µg/mL)
- MIC [14]: 2.69 µM (≈ 3.1 µg/mL)

SMILES: CC(C)C[C@H](NC(=O)[C@H](Cc1c[nH]c2ccccc12)NC(=O)[C@H](CCCCN)NC(=O)[C@H](CCCCN)NC(=O)[C@H](Cc1c[nH]c2ccccc12)NC(=O)[C@H](CC(C)C)NC(=O)[C@H](CCCCN)NC(=O)[C@H](Cc1c[nH]c2ccccc12)NC(=O)[C@H](CC(C)C)NC(=O)[C@@H](N)CCCCN)C(=O)N[C@@H](CCCCN)C(N)=O [KLWKLWKKWLK]
- MIC [15]: 4 µM (≈ 6.22 µg/mL)
- MIC [16]: 4 µM (≈ 6.22 µg/mL)
- MIC [17]: 2 µM (≈ 3.11 µg/mL)
- MIC [18]: ≥ 100 µM
- MIC [19]: 2 µM (≈ 3.11 µg/mL)
- MIC [20]: 1 µM (≈ 1.56 µg/mL)
- MIC [21]: 4 µM (≈ 6.22 µg/mL)
- MIC [22]: 4 µM (≈ 6.22 µg/mL)
- MIC [23]: 2 µM (≈ 3.11 µg/mL)
- MIC [24]: 2 µM (≈ 3.11 µg/mL)
- MIC [25]: 8 µM (≈ 12.4 µg/mL)

SMILES: CC(C)C[C@H](NC(=O)[C@H](CCCN=C(N)N)NC(=O)[C@@H]1CCCN1C(=O)[C@H](Cc1cnc[nH]1)NC(=O)[C@@H]1CCCN1C(=O)[C@@H]1CCCN1C(=O)[C@H](CCCN=C(N)N)NC(=O)[C@@H]1CCCN1C(=O)[C@@H]1CCCN1C(=O)[C@H](Cc1cnc[nH]1)NC(=O)[C@@H]1CCCN1C(=O)[C@@H]1CCCN1C(=O)[C@H](CCCN=C(N)N)NC(=O)[C@@H]1CCCN1C(=O)[C@@H]1CCCN1C(=O)[C@H](Cc1cnc[nH]1)NC(=O)[C@@H]1CCCN1C(=O)[C@@H]1CCCN1C(=O)[C@H](CCCN=C(N)N)NC(=O)[C@@H]1CCCN1C(=O)[C@@H]1CCCN1C(=O)[C@H](Cc1cnc[nH]1)NC(=O)[C@@H]1CCCN1C(=O)[C@@H]1CCCN1C(=O)[C@H](CCCN=C(N)N)NC(=O)[C@@H]1CCCN1)C(=O)O [PRPPHPPRPPHPPRPPHPPRPPHPRL]
- MIC (Salmonella typhimurium): 0.5 µM (≈ 1.51 µg/mL)
- MIC (Proteus vulgaris): 2 µM (≈ 6.03 µg/mL)
- MIC (Escherichia coli): 1 µM (≈ 3.01 µg/mL)
- MIC [26]: ≥ 64 µM
- MIC (Streptococcus pyogenes): ≥ 64 µM
- MIC (Pseudomonas aeruginosa): 4 µM (≈ 12.1 µg/mL)
- MIC (Bacillus subtilis): ≥ 32 µM

SMILES: CC(C)C[C@H](NC(=O)[C@H](CCCN=C(N)N)NC(=O)[C@@H]1CCCN1C(=O)[C@H](Cc1cnc[nH]1)NC(=O)[C@@H]1CCCN1C(=O)[C@@H]1CCCN1C(=O)[C@H](CCCN=C(N)N)NC(=O)[C@@H]1CCCN1C(=O)[C@@H](N)CCC(N)=O)C(=O)O [QPRPPHPRL]
- MIC (Salmonella typhimurium): ≥ 32 µM
- MIC (Proteus vulgaris): ≥ 64 µM
- MIC (Escherichia coli): 64 µM (≈ 70.2 µg/mL)
- MIC [26]: ≥ 64 µM
- MIC (Streptococcus pyogenes): ≥ 64 µM
- MIC (Pseudomonas aeruginosa): 64 µM (≈ 70.2 µg/mL)
- MIC (Bacillus subtilis): ≥ 64 µM

SMILES: CC(C)C[C@H](NC(=O)[C@@H](N)CCCN=C(N)N)C(=O)N[C@@H](Cc1c[nH]c2ccccc12)C(=O)N[C@@H](CCCN=C(N)N)C(=O)N[C@@H](CCCN=C(N)N)C(=O)N[C@@H](Cc1c[nH]c2ccccc12)C(=O)N[C@@H](CCCN=C(N)N)C(=O)N[C@@H](CCCN=C(N)N)C(=O)N[C@@H](Cc1c[nH]c2ccccc12)C(=O)N[C@@H](CCCN=C(N)N)C(=O)N[C@@H](CCCN=C(N)N)C(N)=O [RLWRRWRRWRR]
- MIC [15]: 4 µM (≈ 7.13 µg/mL)
- MIC [16]: 2 µM (≈ 3.56 µg/mL)
- MIC [17]: 8 µM (≈ 14.3 µg/mL)
- MIC [19]: 8 µM (≈ 14.3 µg/mL)
- MIC [20]: 4 µM (≈ 7.13 µg/mL)
- MIC [21]: 16 µM (≈ 28.5 µg/mL)
- MIC [22]: 8 µM (≈ 14.3 µg/mL)
- MIC [23]: 4 µM (≈ 7.13 µg/mL)
- MIC [24]: 2 µM (≈ 3.56 µg/mL)
- MIC [25]: 16 µM (≈ 28.5 µg/mL)
